The source of these data is patent US6808721B2, “Methods for coating pharmaceutical core tablets” (Boehringer Ingelheim Pharmaceuticals, Inc., priority 2001, dated 2004).

The nature of data set [1]: pKa of the drug. It is filed as physicochemical. As for the experimental part:
(§1) At least seven polymorphs of BIRB 796 have been isolated (the melt point of the drug is about 152° C. and the pKa about 6.1). The polymorphs generally exist in the form of elongated needles. BIRB 796 is relatively poorly soluble in physiological environments. The solubility of polymorphic BIRB 796 drug substance (Form IV) has been determined to be about 0.5 ug/ml at pH 7.4 and about 10 mg/ml at pH 2.0.

Data set [2] is described as follows: Solubility of BIRB 796 drug substance. Conditions: for solubility: polymorphic drug substance (Form IV). Type of data set: physicochemical. As for the experimental part:
as §1

Data set [3] in a line: Discoloration on exposure to light or heat. Type of data set: physicochemical. Conditions: in the presence of light. The source says: It has been discovered that BIRB 796 may lead to discoloration of a core tablet in which it is contained when that core tablet is exposed to light or heat. […] Tablet coatings preferably comprise 2-3%, more preferably about 2.5%, by weight of the BIRB 796 tablet. Masking of the color change may also be used to create a pharmaceutically acceptable dosage form, as for example, mixing dry colorants (including yellow no. 10 iron oxide lake) into the formulation.

Data set [4] has as its system proinflammatory cytokines, such as tumor necrosis factor (TNF) and interleukin-1 (IL-1). Conditions: disclosed in PCT/US99/29165 and U.S. Pat. No. 6,319,921; cited from earlier work.

Values after ≈ are worked out from the molar mass of the structure shown.

As usually defined, the pKa is the negative logarithm of the acid dissociation constant. High values mean a weaker acid or stronger base, low ones a stronger acid or weaker base. By solubility is commonly meant the concentration that dissolves in the medium under given conditions.

In turn, `Cc1ccc(-n2nc(C(C)(C)C)cc2NC(=O)Nc2ccc(OCCN3CCOCC3)c3ccccc23)cc1` [BIRB 796, 1-(5-tert-butyl-2-p-tolyl-2H-pyrazol-3-yl)-3-[4-(2-morpholin-4-yl-ethoxy)-naphthalen-1-yl]-urea] showed a pKa in data set [1] of roughly 6.1. Also, the solubility in data set [2] (aqueous buffer, pH 7.4) was roughly 0.5 µg/mL (≈ 0.000948 mM); in data set [2] (simulated gastric fluid, pH 2.0), roughly 10000 µg/mL (≈ 19 mM). The aqueous solubility result in data set [2] (in words) is recorded as “poor aqueous solubility”. In addition, the discoloration result in data set [3] is reported as “tendency to discolor in the presence of light”. For the same compound, the “inhibitory activity with respect to proinflammatory cytokines” value in data set [4] is “unexpectedly significant inhibitory activity”.
